Values after ≈ are worked out from the molar mass of the structure shown.
Tests used:
Assay in all cases: MIC, broth microdilution (NCCLS)
[1] = system: Streptococcus pneumoniae Stpn_297-749; assay type: cell-based
Procedure: (§1) Strains. The bacterial isolates listed in Table 4 were cultivated from −70° C. frozen stocks by two consecutive overnight passages (P1, P2) at 35° C. on 5% blood agar (Remel, Lenexa, Kans.). Chocolate agar (Remel) is used for Haemophilus influenzae. H. influenzae and Streptococcus pneumoniae are incubated in 5-10% CO2
(§2) Drug Stock Preparation. To determine the amount of solvent to be used to give the desired final concentration, the formula “weight obtained in mg/final concentration in mg/ml” will be used. It will give the amount of solvent in ml needed to be added to give the desired concentration. For example, if 2.5 mg/ml is the desired concentration and the weight of compound is 13.7 mg, then the amount of solvent to be added is […]. Methanol is used as the solvent to dissolve the test compounds. Further dilution of stock is done in sterile, deionized water. Drug stocks are kept frozen at −70° C., protected from light.
(§3) Susceptibility Testing. MICs are determined by the broth microdilution method in accordance with the NCCLS guidelines. In brief, organism suspensions are adjusted to a 0.5 McFarland standard to yield a final inoculum between 3×10^5 and 7×10^5 CFU/ml. Drug dilutions and inocula are made in sterile, cation adjusted Mueller-Hinton Broth (CAMHB) (Remel) for all but S. pneumoniae [CAMHB with 2-5% lysed horse blood (Remel)] and H. influenzae [Haemophilus Test Medium (Remel)]. An inoculum volume of 100 μl is added to wells containing 100 μl of broth with 2-fold serial dilutions of drug. All inoculated microdilution trays are incubated in ambient air at 35° C. for 18-24 hours, except for S. pneumoniae, and H. influenzae (both at 5-10% CO2).
(§4) Following appropriate incubation, the MIC is determined and the MIC is defined as the lowest concentration of the drug that prevented visible growth.
as §1, with “8” for “4”
(§5) Following appropriate incubation, the MIC is determined and the MIC is defined as the lowest concentration of the drug that prevented visible growth. […] Antibacterial activity of representative compounds of the invention were compared against telitromycin.

[2] = system: Streptococcus pneumoniae Stpn_280-962; assay type: cell-based
Procedure: as §1, §2, §3, §4
as §1, with “8” for “4”
as §5

[3] = system: Streptococcus pneumoniae Stpn_Erm S 4297; assay type: cell-based; conditions: Table 7, Strain ID J (Table 6): S. pneumoniae Stpn_Erm S 4297
Procedure: as §1, §2, §3, §4
as §1, with “8” for “4”
as §5

[4] = system: Streptococcus pyogenes Stpy_8668; assay type: cell-based
Procedure: as §1, §2, §3, §4
as §1, with “8” for “4”
as §5

[5] = system: Streptococcus pneumoniae Stpn_49619; assay type: cell-based
Procedure: as §1, §2, §3, §4
as §1, with “8” for “4”
as §5

[6] = system: Streptococcus pneumoniae Stpn_Mef S 3427; assay type: cell-based; conditions: Table 7, Strain ID L (Table 6): S. pneumoniae Stpn_Mef S 3427
Procedure: as §1, §2, §3, §4
as §1, with “8” for “4”
as §5

[7] = system: S. pneumoniae Stpn_Erm 6849; assay type: cell-based, Streptococcus pneumoniae; conditions: Table 7, Strain ID I (Table 6): S. pneumoniae Stpn_Erm 6849
Procedure: as §1, §2, §3, §4

[8] = system: Haemophilus influenzae Hain_49247; assay type: cell-based; conditions: Table 7, Strain ID M (Table 6): H. influenzae Hain_49247; unit assumed
Procedure: as §1, §2, §3, §4
as §1, with “8” for “4”
as §5

[9] = system: Staphylococcus epidermidis Step_14990; assay type: cell-based; conditions: Table 7, Strain ID B (Table 6): S. epidermidis Step_14990; in µg/mL (unit assumed)
Procedure: as §1, §2, §3, §4
as §1, with “8” for “4”
as §5

[10] = system: Enterococcus faecalis Enfa_29212; assay type: cell-based; conditions: Table 7, Strain ID D (Table 6): E. faecalis Enfa_29212; in µg/mL (unit assumed)
Procedure: as §1, §2, §3, §4
as §1, with “8” for “4”
as §5

[11] = Table 7, Strain ID G (Table 6): S. pneumoniae Stpn_297-749
[12] = Table 7, Strain ID H (Table 6): S. pneumoniae Stpn_280-962
[13] = Table 7, Strain ID E (Table 6): S. pyogenes Stpy_8668
[14] = Table 7, Strain ID F (Table 6): S. pneumoniae Stpn_49619

C=C[C@]12OC(=O)N(CCCC(C)(C)n3cnc(-c4cccnc4)c3)[C@@H]1[C@@H](C)C(=O)[C@H](C)C[C@](C)(OC)[C@H](OC1O[C@H](C)C[C@H](N(C)C)[C@H]1O)[C@@H](C)C(=O)[C@@H](C)C(=O)O[C@@H]2CC (stereo partly drawn) [Example 50, (3aS,4R,7R,9R,10R,11S,13R,15R,15aR)-4-ethyl-11-methoxy-7,9,11,13,15-pentamethyl-1-[4-methyl-4-(4-pyridin-3-yl-1H-imidazol-1-yl)pentyl]-2,6,8,14-tetraoxo-3a-vinyltetradecahydro-1H-oxacyclotetradecino[4,3-d][1,3]oxazol-10-yl-3,4,6-trideoxy-3-(dimethylamino)-D-xylo-hexopyranoside]
MIC [1, 11]: =0.05
MIC [2, 12]: =0.05
MIC [3]: =0.05
MIC [4, 13]: =0.05
MIC [5, 14]: =0.05

CC[C@H]1OC(=O)[C@@](C)(F)C(=O)[C@H](C)[C@@H](OC2O[C@H](C)C[C@H](N(C)C)[C@H]2O)[C@@](C)(OC)C[C@@H](C)C(=O)[C@H](C)[C@H]2N(CCCC(C)(C)n3cnc(-c4cccnc4)c3)C(=O)O[C@]12CC (stereo partly drawn) [Example 32, (3aS,4R,7S,9R,10R,11S,13R,15R,15aR)-3a,4-diethyl-7-fluoro-11-methoxy-7,9,11,13,15-pentamethyl-1-[4-methyl-4-(4-pyridin-3-yl-1H-imidazol-1-yl)pentyl]-2,6,8,14-tetraoxotetradecahydro-2H-oxacyclotetradecino[4,3-d][1,3]oxazol-10-yl-3,4,6-trideoxy-3-(dimethylamino)-D-xylo-hexopyranoside]
MIC [1, 11]: =0.05
MIC [2, 12]: =0.05
MIC [3]: =0.05
MIC [4, 13]: =0.05
MIC [5, 14]: =0.05

CC[C@H]1OC(=O)[C@H](C)C(=O)[C@H](C)[C@@H](OC2O[C@H](C)C[C@H](N(C)C)[C@H]2O)[C@@](C)(OC)C[C@@H](C)C(=O)[C@H](C)[C@H]2N(CCCCn3cnc4cccnc43)C(=O)O[C@]12CC (stereo partly drawn) [Example 14, (3aS,4R,7R,9R,10R,11S,13R,15R,15aR)-3a,4-DIETHYL-1-[4-(3H-IMIDAZO[4,5-B]PYRIDIN-3-YL)BUTYL]-11-METHOXY-7,9,11,13,15-PENTAMETHYL-2,6,8,14-TETRAOXOTETRADECAHYDRO-2H-OXACYCLOTETRADECINO[4,3-D][1,3]OXAZOL-10-YL-3,4,6-TRIDEOXY-3-(DIMETHYLAMINO)-D-XYLO-HEXOPYRANOSIDE]
MIC [1, 11]: =0.05
MIC [2, 12]: =0.05
MIC [6]: =0.05
MIC [4, 13]: =0.05
MIC [5, 14]: =0.05

CC[C@H]1OC(=O)[C@H](C)C(=O)[C@H](C)[C@@H](OC2O[C@H](C)C[C@H](N(C)C)[C@H]2O)[C@@](C)(OC)C[C@@H](C)C(=O)[C@H](C)[C@H]2N(CCCOc3cccc(-c4cccnc4)c3)C(=O)O[C@]12CC (stereo partly drawn) [Example 35, (3aS,4R,7R,9R,10R,11S,13R,15R,15aR)-3a,4-diethyl-11-methoxy-7,9,11,13,15-pentamethyl-2,6,8,14-tetraoxo-1-[3-(3-pyridin-3-ylphenoxy)propyl]tetradecahydro-1H-oxacyclotetradecino[4,3-d][1,3]oxazol-10-yl-3,4,6-trideoxy-3-(dimethylamino)-D-xylo-hexopyranoside]
MIC [1, 11]: =0.05
MIC [7]: =0.05
MIC [2, 12]: =0.05

C=C[C@]12OC(=O)N(CCCCn3cnc(-c4cccnc4)c3)[C@@H]1[C@@H](C)C(=O)[C@H](C)C[C@](C)(OC)[C@H](OC1O[C@H](C)C[C@H](N(C)C)[C@H]1O)[C@@H](C)C(=O)[C@](C)(F)C(=O)O[C@@H]2CC (stereo partly drawn) [Example 49, (3aS,4R,7S,9R,10R,11S,13R,15R,15aR)-4-ethyl-7-fluoro-11-methoxy-7,9,11,13,15-pentamethyl-2,6,8,14-tetraoxo-1-[4-(4-pyridin-3-yl-1H-imidazol-1-yl)butyl]-3a-vinyltetradecahydro-1H-oxacyclotetradecino[4,3-d][1,3]oxazol-10-yl-3,4,6-trideoxy-3-(dimethylamino)-D-xylo-hexopyranoside]
MIC [1, 11]: =0.05
MIC [2, 12]: =0.05
MIC [3]: =0.05
MIC [6]: =0.05
MIC [4, 13]: =0.05
MIC [5, 14]: =0.05

CC[C@H]1OC(=O)[C@H](C)C(=O)[C@H](C)[C@@H](OC2O[C@H](C)C[C@H](N(C)C)[C@H]2O)[C@@](C)(OC)C[C@@H](C)C(=O)[C@H](C)[C@H]2N(CCCCc3ccnc4ccccc34)C(=O)O[C@]12CC (stereo partly drawn) [Example 15, (3aS,4R,7R,9R,10R,11S,13R,15R,15aR)-3a,4-DIETHYL-11-METHOXY-7,9,11,13,15-PENTAMETHYL-2,6,8,14-TETRAOXO-1-(4-QUINOLIN-4-YLBUTYL)TETRADECAHYDRO-2H-OXACYCLOTETRADECINO[4,3-D][1,3]OXAZOL-10-YL-3,4,6-TRIDEOXY-3-(DIMETHYLAMINO)-D-XYLO-HEXOPYRANOSIDE]
MIC [1, 11]: =0.05
MIC [2, 12]: =0.05
MIC [8]: 3.13 µg/mL (≈ 3.86 µM)
MIC [9]: 0.2
MIC ([3]; unit assumed): 0.1 µg/mL (≈ 0.123 µM)
MIC [6]: =0.05
MIC [10]: 0.1
MIC [4, 13]: =0.05
MIC [5, 14]: =0.05

CC[C@H]1OC(=O)[C@H](C)[C@@H](O[C@H]2C[C@@](C)(OC)[C@@H](O)[C@H](C)O2)[C@H](C)[C@@H](O[C@@H]2O[C@H](C)C[C@H](N(C)C)[C@H]2O)[C@](C)(OC)C[C@@H](C)C(=O)[C@H](C)[C@@H](O)[C@]1(C)O [Clar., clarithromycin, reference compound]
MIC ([1]; Table 5, Strain ID F (Table 4): S. pneumoniae Stpn_297-749 Pen R): =0.05
MIC ([2]; Table 5, Strain ID G (Table 4): S. pneumoniae Stpn_280-962 Pen S): =0.05
MIC ([4]; Table 5, Strain ID D (Table 4): S. pyogenes Stpy_8668): =0.05
MIC ([5]; Table 5, Strain ID E (Table 4): S. pneumoniae Stpn_49619): =0.05

CC[C@H]1OC(=O)[C@H](C)C(=O)[C@H](C)[C@@H](OC2O[C@H](C)C[C@H](N(C)C)[C@H]2O)[C@@](C)(OC)C[C@@H](C)C(=O)[C@H](C)[C@H]2N(CCCCc3ccc4ccccc4n3)C(=O)O[C@]12CC (stereo partly drawn) [Example 18, (3aS,4R,7R,9R,10R,11S,13R,15R,15aR)-3a,4-diethyl-11-methoxy-7,9,11,13,15-pentamethyl-2,6,8,14-tetraoxo-1-(4-quinolin-2-ylbutyl)tetradecahydro-2H-oxacyclotetradecino[4,3-d][1,3]oxazol-10-yl-3,4,6-trideoxy-3-(dimethylamino)-D-xylo-hexopyranoside]
MIC [1, 11]: =0.05
MIC [2, 12]: =0.05
MIC [6]: =0.05
MIC [5, 14]: =0.05

CC[C@H]1OC(=O)[C@H](C)C(=O)[C@H](C)[C@@H](OC2O[C@H](C)C[C@H](N(C)C)[C@H]2O)[C@@](C)(OC)C[C@@H](C)C(=O)[C@H](C)[C@H]2N(CCCCn3cnc(-c4cccnc4)c3C)C(=O)O[C@]12CC (stereo partly drawn) [Example 21, (3aS,4R,7R,9R,10R,11S,13R,15R,15aR)-3a,4-DIETHYL-11-METHOXY-7,9,11,13,15-PENTAMETHYL-1-[4-(5-METHYL-4-PYRIDIN-3-YL-1H-IMIDAZOL-1-YL)BUTYL]-2,6,8,14-TETRAOXOTETRADECAHYDRO-2H-OXACYCLOTETRADECINO[4,3-D][1,3]OXAZOL-10-YL-3,4,6-TRIDEOXY-3-(DIMETHYLAMINO)-D-XYLO-HEXOPYRANOSIDE]
MIC [1, 11]: =0.05
MIC [2, 12]: =0.05
MIC [4, 13]: =0.05
MIC [5, 14]: =0.05

— patent US7332476B2, “Pyridyl substituted ketolide antibiotics” (Novartis AG, priority 2003, dated 2008)
